From US20240207216A1, “COMPOSITIONS AND METHOD FOR TREATING GUT PERMEABILITY CAUSED BY HYDROGEN SULFIDE PRODUCING BACTERIA” (UNM RAINFOREST INNOVATIONS, priority 2022, published 2024) come the findings set out here.

Common to all, as to type: cell-based, murine
For one assay, the system named is iNOS. Kind of assay: DSV-induced iNOS expression, Western blot in RAW cells. To be noted: 1 h before DSV 4 h, DSV alone 23.54±5.39. As for the experimental part: (§1) RAW 264.7 murine macrophage-like cells were grown in DMEM+10% FBS without any use of antibiotics or antimycotics. Cells were grown at 37° C. in a humidified incubator with 5% CO2. Prior to the day of infection, 8×10^5 cells were plated in a six-well plate and infected with DSV at multiplicity of infection 20 (MOI 20) for various times. For drug treatments, cells were incubated with LY294002 at 10 μM or 50 μM for one hour followed by DSV infection for 30 minutes or four hours. For TL2-C29 treatment, cells were incubated with the inhibitor at 200 μM for three hours followed by infection with DSV for four hours.
(§2) Cells were lysed in Lysis buffer containing protease and phosphatase inhibitors (Thermo Fisher Scientific, Inc., Waltham, MA) for 20 minutes at 4° C. Lysates were centrifuged at 12,000 rpm for five mins at 4° C. and supernatants were collected. Protein concentration in the supernatants was determined with Bradford reagent (Bio-Rad Laboratories, Inc., Hercules, CA). 50 μg of protein samples were run on SDS-PAGE (4-20% tris-glycine) and transferred to nitrocellulose membranes. Membranes were blocked in 5% milk in PBS-T (0.1% Tween 20) for 30 minutes followed by overnight incubation in primary antibodies in cold room. All antibodies except iNOS were purchased from Cell Signaling Technology (Danvers, MA): Actin (4970), p-AktS473(4060), p-Akt T308(13038), Akt (9272), p-P70S6K (9205), P70S6K (2708, TNF-α (19948). iNOS antibody was purchased from Abcam (Cambridge United Kingdom). Antibodies were diluted as recommended by the manufacturer. The following day, blots were washed with PBS-T and incubated with secondary antibodies (Cell Signaling Technology, Danvers, MA) at room temperature for one hour (dilution of 1:2000) and developed using enhanced chemiluminescence HRP signal (Thermo Fisher Scientific, Inc., Waltham, MA).
(§3) All graphs were generated using PRISM 9.4.1 GraphPad Software Inc., San Diego, CA). Data is plotted as Mean±SEM relative to control. Each experiment was conducted at least three independent times. […]

A further assay deals with p-p70S6K. Kind of assay: DSV-induced p-P70S6K, Western blot in RAW cells. Particulars: 1 h before DSV 4 h, DSV alone 1.96±0.20. The procedure:
as §1
(§4) Cells were lysed in Lysis buffer containing protease and phosphatase inhibitors (Thermo Fisher Scientific, Inc., Waltham, MA) for 20 minutes at 4° C. Lysates were centrifuged at 12,000 rpm for five mins at 4° C. and supernatants were collected. Protein concentration in the supernatants was determined with Bradford reagent (Bio-Rad Laboratories, Inc., Hercules, CA). 50 μg of protein samples were run on SDS-PAGE (4-20% tris-glycine) and transferred to nitrocellulose membranes. Membranes were blocked in 5% milk in PBS-T (0.1% Tween 20) for 30 minutes followed by overnight incubation in primary antibodies in cold room. […]
Background: A western blot detects proteins with antibodies after separation by electrophoresis.

A further assay concerns secreted TNF-α. The assay can be described thus: DSV-induced secreted TNF-α, Western blot of RAW cell culture supernatant. To be noted: 1 h before DSV 4 h, DSV alone 18.73±6.21. As for the experimental part: FIG. 12. LY294002 inhibits DSV-induced activation of PI3K/Akt/TNF pathway. (A) RAW cells were treated with LY at either 10 μM or 50 μM for one hour before infection with DSV for four hours. Cells were lysed and protein lysate was prepared. Fifty μg of protein lysate was separated on SDS-PAGE and analyzed for p-Akt, Akt, TNF, iNOS, p-p70S6K, and total p70S6K by Western blotting. Actin was used as a loading control. (B) Quantification of p-Akt-Akt Western blot. (C) Quantification of p-P70/P70 Western blot. (D) Quantification of TNF-α/actin Western blot. (E) Post-infection, RAW cell culture supernatant was collected and proteins were precipitated using ethanol precipitation. Proteins were resuspended in PBS and 50 μg of proteins were loaded on SDS-PAGE and secreted TNF-α was detected using TNF-α antibody. Actin was used as a loading control.
as §1, §4

A further assay has as its system p-Akt/Akt. Kind of assay: DSV-induced Akt phosphorylation, Western blot in RAW cells. Particulars: 1 h before DSV 4 h, DSV alone 4.88±1.31. The procedure:
as §1, §2, §3

A further assay deals with p-p65 NF-κB. The assay can be described thus: DSV-induced phospho-p65 NF-κB, Western blot in RAW cells. Particulars: 50 μM pre-treatment, DSV 30 minutes; DSV alone 3.54±0.59. The procedure: FIG. 13. LY294002 inhibits DSV-induced activation of PI3K/Akt/TNF pathway. (A) Quantification of secreted TNF-α. (B) Cells were treated with LY at either 10 μM or 50 μM for one hour before infection with DSV for four hours. Protein lysate was analyzed for iNOS expression. (C) Cells were pretreated with or without LY 50 μM followed by infection with DSV for 30 minutes and protein samples were analyzed for p-p65 NF-κB and total NF-κB. (D) Blots were quantified by analyzing the ratio of p-NF-κB/NF-κB. Values were normalized and compared to control. Data represents Mean±SEM from at least three independent experiments. Values were normalized to control. One-way ANOVA was used to determine the statistical significance. Values were compared to DSV, with a post-hoc Dunnett's test. *p<0.05, **p<0.01, ***p<0.001.
RAW 264.7 murine macrophage-like cells were grown in DMEM+10% FBS without any use of antibiotics or antimycotics. Cells were grown at 37° C. in a humidified incubator with 5% CO2. […]
Cells were lysed in Lysis buffer containing protease and phosphatase inhibitors (Thermo Fisher Scientific, Inc., Waltham, MA) for 20 minutes at 4° C. […] Protein concentration in the supernatants was determined with Bradford reagent (Bio-Rad Laboratories, Inc., Hercules, CA). […]

The next assay concerns TNF-α. Kind of assay: DSV-induced cellular TNF-α expression, Western blot in RAW cells. Particulars: 1 h before DSV 4 h, DSV alone 37.01±4.28. As for the experimental part:
as §1, §2, §3

Structures are written as SMILES.

As to `O=c1cc(N2CCOCC2)oc2c(-c3ccccc3)cccc12` [LY294002], the “iNOS expression, normalized to control” value is listed as 5.45±0.17 with iNOS (10 μM) and 2.28±0.58 in the assay on iNOS (50 μM). For the same compound, the “p-P70/P70, normalized to control” value with p-p70S6K (10 μM) is on record as 0.081±0.026; with p-p70S6K (50 μM), 0.088±0.029. Besides, the “secreted TNF-α, normalized to control” value amounted to 1.45±0.24 in the assay on secreted TNF-α (10 μM) and 1.34±0.57 in the assay on secreted TNF-α (50 μM). The “p-Akt/Akt, normalized to control” value is 0.52±0.11 in the assay with p-Akt/Akt (10 μM) and 0.40±0.09 in the assay on p-Akt/Akt (50 μM). For the same compound, in the assay on p-p65 NF-κB, the “p-NF-κB/NF-κB (p-p65), normalized to control” value was found to be 1.91±0.54. Also, the “cellular TNF-α/actin, normalized to control” value with TNF-α (10 μM) is recorded as 13.42±2.13; in the assay with TNF-α (50 μM), 6.044±2.139.
